Assays:
PI3K delta = target: T1, PI3K delta (Homo sapiens, UniProt O00329); assay: Enzymatic PI3K delta isoform inhibition (lipid kinase activity, Kinase-Glo); format: biochemical; settings: enzymatic assay
T1 construct: for the full-length p110-d subunit are generated and fused by overlapping PCR; His tag (C); made in house; host or cells: baculovirus; Tn5 (Trichoplusia ni) or TiniPro insect cells
Experimental: (§1) In a more preferred assay, the kinase reaction is performed in a final volume of 10 μl per well of a low volume non-binding CORNING, 384 well black plate (Cat. No. #3676). The final concentrations of ATP and phosphatidyl inositol (PI) in the assay are 1 μM and 10 μg/mL, respectively. The reaction is started by the addition of ATP.
(§2) The components of the assay are added per well as follows:
(§3) 50 nl test compounds in 90% DMSO per well, in columns 1-20, 8 concentrations (1/3 and 1/3.33 serial dilution step) in single. • Low control: 50 nl of 90% DMSO in half the wells of columns 23-24 (0.45% in final). • High control: 50 nl of reference compound (e.g. compound of Example 7 in WO 2006/122806) in the other half of columns 23-24 (2.5 μM in final). • Standard: 50 nl of reference compound as just mentioned diluted as the test compounds in columns 21-22. • 20 mL ‘buffer’ are prepared per assay: • 200 μl of 1M TRIS HCl pH7.5 (10 mM in final) • 60 μl of 1M MgCl2 (3 mM in final) • 500 μl of 2M NaCl (50 mM in final) • 100 μl of 10% CHAPS (0.05% in final) • 200 μl of 100 mM DTT (1 mM in final) • 18.94 mL of nanopure water • 10 mL ‘PI’ are prepared per assay: • 200 μl of 1 mg/mL 1-alpha-Phosphatidylinositol (Liver Bovine, Avanti Polar Lipids Cat. No. 840042C MW=909.12) prepared in 3% OctylGlucoside (10 μg/mL in final) • 9.8 mL of ‘buffer’ • 10 mL ‘ATP’ are prepared per assay: • 6.7 μl of 3 mM stock of ATP giving a final concentration of 1 μM per well • 10 mL of ‘buffer’ • 2.5 mL of each PI3K construct are prepared per assay in ‘PI’ with the following final concentration: • 10 nM PI3K alfa EMV B1075 • 25 nM beta EMV BV949 • 10 nM delta EMV BV1060 • 150 nM gamma EMV BV950 • 5 μl of ‘PI/PI3K’ are added per well. • 5 μl ‘ATP’ are added per well to start the reaction. • The plates are then incubated at room temperature for 60 minutes (alfa, beta, delta) or 120 minutes (gamma). • The reaction is terminated by the addition of 10 μl Kinase-Glo (Promega Cat. No. #6714). • The assay plates are read after 10 minutes in Synergy 2 reader (BioTek, Vermont USA) with an integration time of 100 milliseconds and sensitivity set to 191. • Output: The High control is around 60'000 counts and the Low control is 30'000 or lower • This luminescence assay gives a useful Z′ ratio between 0.4 and 0.7
(§4) IC50 is determined by a four parameter curve fitting routine that comes along with “excel fit”. A four parameter logistic equation is used to calculate IC50 values (IDBS XLfit) of the percentage inhibition of each compound at 8 concentrations (usually 10, 3.0, 1.0, 0.3, 0.1, 0.030, 0.010 and 0.003 μM). Alternatively, IC50 values are calculated using idbsXLfit model 204, which is a 4 parameter logistic model.
(§5) Yet alternatively, for an ATP depletion assay, compounds of the formula I to be tested are dissolved in DMSO and directly distributed into a white 384-well plate at 0.5 μl per well. To start the reaction, 10 μl of 10 nM PI3 kinase and 5 μg/mL 1-alpha-phosphatidylinositol (PI) are added into each well followed by 10 μl of 2 μM ATP. The reaction is performed until approx 50% of the ATP is depleted, and then stopped by the addition of 20 μl of Kinase-Glo solution (Promega Corp., Madison, Wis., USA). The stopped reaction is incubated for 5 minutes and the remaining ATP is then detected via luminescence. IC50 values are then determined.

PI3K alpha = target: T2, PI3K alpha (Homo sapiens, UniProt P42336); assay: Enzymatic PI3K alpha isoform inhibition (lipid kinase activity, Kinase-Glo); format: biochemical; settings: enzymatic assay
T2 construct: His tag (C); made in house; host or cells: baculovirus; Tn5 (Trichoplusia ni) or TiniPro insect cells
T2 sequence (P42336 with tags, fused parts or gaps limits assumed): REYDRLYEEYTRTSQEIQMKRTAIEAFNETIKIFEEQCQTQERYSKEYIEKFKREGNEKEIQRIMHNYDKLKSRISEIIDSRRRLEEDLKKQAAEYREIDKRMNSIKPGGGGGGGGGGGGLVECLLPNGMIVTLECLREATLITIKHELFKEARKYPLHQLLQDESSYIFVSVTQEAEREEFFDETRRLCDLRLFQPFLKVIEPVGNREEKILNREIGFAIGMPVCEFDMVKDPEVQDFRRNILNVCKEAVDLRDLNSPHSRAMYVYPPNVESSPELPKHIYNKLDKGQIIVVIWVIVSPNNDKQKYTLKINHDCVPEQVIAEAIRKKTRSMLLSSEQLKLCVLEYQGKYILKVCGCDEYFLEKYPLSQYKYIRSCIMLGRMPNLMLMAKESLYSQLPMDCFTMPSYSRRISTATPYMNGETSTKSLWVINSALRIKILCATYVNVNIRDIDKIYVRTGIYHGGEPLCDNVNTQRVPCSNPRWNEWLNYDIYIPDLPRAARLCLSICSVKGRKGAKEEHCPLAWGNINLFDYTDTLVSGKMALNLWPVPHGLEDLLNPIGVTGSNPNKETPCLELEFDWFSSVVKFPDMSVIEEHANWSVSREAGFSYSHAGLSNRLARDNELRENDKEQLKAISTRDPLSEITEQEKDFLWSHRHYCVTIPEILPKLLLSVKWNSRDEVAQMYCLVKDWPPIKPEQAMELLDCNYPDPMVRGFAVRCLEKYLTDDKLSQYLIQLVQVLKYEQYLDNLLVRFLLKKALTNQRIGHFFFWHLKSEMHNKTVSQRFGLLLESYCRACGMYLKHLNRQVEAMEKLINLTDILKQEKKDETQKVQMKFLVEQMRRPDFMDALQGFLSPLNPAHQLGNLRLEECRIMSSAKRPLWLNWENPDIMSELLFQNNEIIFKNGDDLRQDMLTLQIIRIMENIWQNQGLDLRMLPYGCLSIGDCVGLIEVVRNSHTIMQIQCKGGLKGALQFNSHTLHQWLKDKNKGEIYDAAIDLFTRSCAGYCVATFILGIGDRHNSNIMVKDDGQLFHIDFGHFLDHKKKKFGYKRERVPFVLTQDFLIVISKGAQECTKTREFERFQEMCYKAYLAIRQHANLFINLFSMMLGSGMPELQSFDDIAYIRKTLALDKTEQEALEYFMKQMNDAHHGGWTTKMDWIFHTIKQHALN
Experimental: The kinase reaction is performed in a final volume of 50 μl per well of a half area COSTAR, 96 well plate. The final concentrations of ATP and phosphatidyl inositol in the assay are 5 μM and 6 μg/mL, respectively. The reaction is started by the addition of PI3 kinase, e.g. PI3 kinase δ.
as §1, §2, §3, §4, §5

T1 sequence (O00329 with tags, fused parts or gaps limits assumed): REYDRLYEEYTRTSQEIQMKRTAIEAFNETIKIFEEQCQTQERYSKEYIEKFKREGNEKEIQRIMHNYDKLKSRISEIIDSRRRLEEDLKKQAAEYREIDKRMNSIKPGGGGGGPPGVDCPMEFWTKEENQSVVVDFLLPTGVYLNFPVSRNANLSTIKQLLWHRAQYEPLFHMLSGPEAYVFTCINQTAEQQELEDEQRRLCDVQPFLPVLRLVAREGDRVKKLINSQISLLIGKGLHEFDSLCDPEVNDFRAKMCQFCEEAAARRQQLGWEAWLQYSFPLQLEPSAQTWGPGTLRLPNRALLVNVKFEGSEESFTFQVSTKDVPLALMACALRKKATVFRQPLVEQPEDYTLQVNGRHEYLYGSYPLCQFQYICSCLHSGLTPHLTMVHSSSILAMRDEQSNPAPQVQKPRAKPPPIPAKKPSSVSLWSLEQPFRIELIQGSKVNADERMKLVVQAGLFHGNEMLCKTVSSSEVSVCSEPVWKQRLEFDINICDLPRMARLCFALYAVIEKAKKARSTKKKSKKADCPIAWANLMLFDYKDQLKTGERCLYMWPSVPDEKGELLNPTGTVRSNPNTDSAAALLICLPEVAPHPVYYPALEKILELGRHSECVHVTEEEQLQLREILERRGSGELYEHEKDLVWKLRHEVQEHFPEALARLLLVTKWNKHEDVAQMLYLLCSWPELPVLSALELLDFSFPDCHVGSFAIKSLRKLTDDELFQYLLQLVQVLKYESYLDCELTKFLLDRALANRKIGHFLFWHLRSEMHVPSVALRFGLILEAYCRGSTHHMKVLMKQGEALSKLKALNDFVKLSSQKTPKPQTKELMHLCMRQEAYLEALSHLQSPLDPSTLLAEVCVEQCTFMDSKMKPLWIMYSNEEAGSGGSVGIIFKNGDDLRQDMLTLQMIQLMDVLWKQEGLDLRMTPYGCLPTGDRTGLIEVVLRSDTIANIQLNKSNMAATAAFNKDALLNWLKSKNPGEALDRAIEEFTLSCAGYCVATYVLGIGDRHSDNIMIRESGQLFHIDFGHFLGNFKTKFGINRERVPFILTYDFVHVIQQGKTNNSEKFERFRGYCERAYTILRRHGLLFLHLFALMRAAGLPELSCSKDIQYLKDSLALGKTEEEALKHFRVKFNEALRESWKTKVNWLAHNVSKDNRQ

IC50 (PI3K delta): 20 nM
IC50 (PI3K alpha): 30 nM
SMILES: Nc1ncc(-c2ccnc3ccc(O[C@H]4CCN(C(=O)C5CCS(=O)(=O)CC5)C4)cc23)cc1C(F)(F)F [Example A31, {(S)-3-[4-(6-Amino-5-trifluoromethyl-pyridin-3-yl)-quinolin-6-yloxy]-pyrrolidin-1-yl}-(1,1-dioxo-hexahydro-1lambda*6*-thiopyran-4-yl)-methanone]

Reference: patent US20150148377A1, “Quinoline Derivatives” (NOVARTIS AG, priority 2011, published 2015)
